Source: PubChem BioAssay AID1963846 (Molecular Pharmacology Branch, DTP, NCI, 2024)

Tested on: 454973-116-R2-J3-PDC complex spheroid viability
Experiment: Anticancer human tumor 454973-116-R2-J3-PDC patient-derived pancreatic carcinoma cell line growth inhibition [POLQ]
Settings: for IC50: curve of first compound; for viability, T/C: stronger effect = lower value
Protocol: Multicellular complex tumor spheroid response to Polymerase (POL) inhibitors (novobiocin, ART-558, RP6685) in combination with a variety of drugs and investigational agents in selected tumor cell lines
The POL inhibitors (novobiocin, ART-558, and RP6685) were evaluated both individually and in combination with standard of care and investigational anticancer small molecules within a complex spheroid model of solid tumors. . Complex spheroids include a stromal component modeled by human endothelial cells (HUVEC) and fibroblasts modeled by human mesenchymal stem cells (MSCs). The concentration ranges selected for each drug and investigational agent were based upon clinically achievable concentrations if the clinical Cmax of the agent was known.
Compounds. The drugs and investigational agents: novobiocin (NSC847541), ART-558 (NSC835418), RP-6685 (NSC848927), peposertib (NSC802822), ceralasertib (NSC780249), elimusertib (NSC800525), camonsertib (NSC841442), AZD-1390 (NSC803789), olaparib (NSC753686), talazoparib (NSC767125), rucaparib (NSC756644), sotorasib (NSC818433), MRTX-1133 (NSC836407), SN-38 (NSC673596), topotecan (NSC609699), epotoside (NSC141540), doxorubicin (NSC123127), gemcitabine (NSC613327), 5-fluorouracil (NSC19893), paclitaxel (NSC125973), vemurafenib (NSC761431), MSA-2 (NSC828583), SN-011 (NSC837082), adavosertib (NSC754352), prexasertib (NSC758257), carboplatin (NSC241240) and oxaliplatin (NSC266046), were obtained from the National Cancer Institute (NCI) Developmental Therapeutics Program Chemical Repository (21). The FDA-approved anticancer drug set is available from the Developmental Therapeutics Program at https://dtp.cancer.gov/organization/dscb/obtaining/. […] The stock solutions were prepared in dimethyl sulfoxide (DMSO, Sigma-Aldrich, St. Louis, MO, cat. D2650), except for the platinum compounds which were prepared in saline (Quality Biological, Gaithersburg, MD, cat. 114-055-101), at 800-fold the tested concentration and stored at -70 degrees C prior to their use. All drugs and investigational agents were tested over a range starting from a high concentration at or near the clinical Cmax and decreasing in half-log increments. If the clinical Cmax for an agent had not been determined, the highest concentration tested was 10 microM, except for SN-38, which was tested at a high concentration of 1 microM.
Cell Culture. All cells were maintained in an incubator at 37 degrees C and 5% CO2 with 95% humidity. The PDC lines were cultured according to standard operating procedures established by the NCI PDMR (https://pdmr.cancer.gov). Table 3 of the manuscript, lists the cell lines along with the number of the three cell types plated to form the mct-spheroids and media for tumor cell growth. After thawing, all PDC lines, except 997537-175-T-J1-PDC and 415267-285-R-J2-PDC, were cultured in Matrigel-coated flasks prepared with a working solution of 1X Ham's F-12 nutrient mix, without supplementation (Thermo Fisher Scientific, cat. 11765054), 100 U/mL penicillin-streptomycin (Thermo Fisher Scientific, cat. 15140122), and 2.5% Matrigel (Corning Inc., Corning, NY, cat. 354248) for the first three passages. The two PDC lines 997537-175-T-J1-PDC and 415267-285-R-J2-PDC were cultured on uncoated flasks. The 857933-349-R-J2-PDC line was cultured in 6C/Colon 1B media containing advanced DMEM/F-12 (Thermo Fisher Scientific, cat. 12634028), 10 mM HEPES (Thermo Fisher Scientific, cat. 15630080), 1X GlutaMAX supplement (Thermo Fisher Scientific, cat. 35050061), 0.1 mg/mL primocin (InvivoGen, San Diego, CA, cat. ant-pm-2), 10% defined fetal bovine serum, heat inactivated (HyClone Laboratories Inc., Logan, UT, cat. SH30070.03HI), 50% L-WRN conditioned media (ATCC, cat. CRL-3276), 1.25 mM N-Acetyl-L-cysteine (Sigma-Aldrich, cat. A9165), 10 mM nicotinamide (Sigma-Aldrich, cat. N0636), 1X B-27 supplement (Thermo Fisher Scientific, cat. 17504044), 1X N-2 supplement (Thermo Fisher Scientific, cat. […]

[1] = second compound 0.0316 µM, first compound 0.00316 µM
[2] = second compound 0.0316 µM, first compound 0.01 µM
[3] = second compound 0.0316 µM, first compound 0.0316 µM
[4] = second compound 0.0316 µM, first compound 0.1 µM
[5] = second compound 0.0316 µM, first compound 0.316 µM
[6] = second compound 0.0316 µM, first compound 1 µM
[7] = second compound 0.1 µM, first compound 0.00316 µM
[8] = second compound 0.1 µM, first compound 0.01 µM
[9] = second compound 0.1 µM, first compound 0.0316 µM
[10] = second compound 0.1 µM, first compound 0.1 µM
[11] = second compound 0.1 µM, first compound 0.316 µM
[12] = second compound 0.1 µM, first compound 1 µM
[13] = second compound 0.316 µM, first compound 0.00316 µM
[14] = second compound 0.316 µM, first compound 0.01 µM
[15] = second compound 0.316 µM, first compound 0.0316 µM
[16] = second compound 0.316 µM, first compound 0.1 µM
[17] = second compound 0.316 µM, first compound 0.316 µM
[18] = second compound 0.316 µM, first compound 1 µM
[19] = second compound 1 µM, first compound 0.00316 µM
[20] = second compound 1 µM, first compound 0.01 µM
[21] = second compound 1 µM, first compound 0.0316 µM
[22] = second compound 1 µM, first compound 0.1 µM
[23] = second compound 1 µM, first compound 0.316 µM
[24] = second compound 1 µM, first compound 1 µM
[25] = second compound 3.16 µM, first compound 0.00316 µM
[26] = second compound 3.16 µM, first compound 0.01 µM
[27] = second compound 3.16 µM, first compound 0.0316 µM
[28] = second compound 3.16 µM, first compound 0.1 µM
[29] = second compound 3.16 µM, first compound 0.316 µM
[30] = second compound 3.16 µM, first compound 1 µM
[31] = second compound 10 µM, first compound 0.00316 µM
[32] = second compound 10 µM, first compound 0.01 µM
[33] = second compound 10 µM, first compound 0.0316 µM
[34] = second compound 10 µM, first compound 0.1 µM
[35] = second compound 10 µM, first compound 0.316 µM
[36] = second compound 10 µM, first compound 1 µM
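Note: spheroids exposed to drugs for seven days before measurement.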
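Throughout, for viability, T/C: percent viability relative to DMSO vehicle control wells taken as 100%.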

SMILES: C=CCn1c(=O)c2cnc(Nc3ccc(N4CCN(C)CC4)cc3)nc2n1-c1cccc(C(C)(C)O)n1 + COC1C(OC(N)=O)C(O)C(Oc2ccc3c(O)c(NC(=O)c4ccc(O)c(CC=C(C)C)c4)c(=O)oc3c2C)OC1(C)C
- IC50 (second compound 0.0316 µM): 548 nM
- IC50 (second compound 0.1 µM): 527 nM
- IC50 (second compound 0.316 µM): 535 nM
- IC50 (second compound 1 µM): 549 nM
- IC50 (second compound 3.16 µM): 596 nM
- IC50 (second compound 10 µM): 571 nM
- viability, T/C [1]: 107%
- viability, T/C [2]: 98.3%
- viability, T/C [3]: 102%
- viability, T/C [4]: 95.5%
- viability, T/C [5]: 81.2%
- viability, T/C [6]: 16.6%
- viability, T/C [7]: 99.7%
- viability, T/C [8]: 104%
- viability, T/C [9]: 102%
- viability, T/C [10]: 103%
- viability, T/C [11]: 76.1%
- viability, T/C [12]: 17.3%
- viability, T/C [13]: 102%
- viability, T/C [14]: 104%
- viability, T/C [15]: 104%
- viability, T/C [16]: 103%
- viability, T/C [17]: 74.7%
- viability, T/C [18]: 20.5%
- viability, T/C [19]: 112%
- viability, T/C [20]: 101%
- viability, T/C [21]: 105%
- viability, T/C [22]: 104%
- viability, T/C [23]: 79.2%
- viability, T/C [24]: 18.2%
- viability, T/C [25]: 104%
- viability, T/C [26]: 106%
- viability, T/C [27]: 111%
- viability, T/C [28]: 110%
- viability, T/C [29]: 86.8%
- viability, T/C [30]: 19.8%
- viability, T/C [31]: 101%
- viability, T/C [32]: 98.8%
- viability, T/C [33]: 99.5%
- viability, T/C [34]: 105%
- viability, T/C [35]: 82.9%
- viability, T/C [36]: 18.8%

SMILES: CC1COCCN1c1cc(C2(S(C)(=N)=O)CC2)nc(-c2ccnc3[nH]ccc23)n1 (stereo unspecified) + COC1C(OC(N)=O)C(O)C(Oc2ccc3c(O)c(NC(=O)c4ccc(O)c(CC=C(C)C)c4)c(=O)oc3c2C)OC1(C)C
- IC50 (second compound 0.0316 µM): 5990 nM
- IC50 (second compound 0.1 µM): 6040 nM
- IC50 (second compound 0.316 µM): 7300 nM
- IC50 (second compound 1 µM): 6190 nM
- IC50 (second compound 3.16 µM): 6150 nM
- IC50 (second compound 10 µM): 6050 nM
- viability, T/C [3]: 102%
- viability, T/C [4]: 104%
- viability, T/C [5]: 105%
- viability, T/C [6]: 102%
- viability, T/C (second compound 0.0316 µM, first compound 3.16 µM): 77.1%
- viability, T/C (second compound 0.0316 µM, first compound 10 µM): 28.1%
- viability, T/C [9]: 107%
- viability, T/C [10]: 114%
- viability, T/C [11]: 101%
- viability, T/C [12]: 101%
- viability, T/C (second compound 0.1 µM, first compound 3.16 µM): 71.8%
- viability, T/C (second compound 0.1 µM, first compound 10 µM): 32.8%
- viability, T/C [15]: 103%
- viability, T/C [16]: 110%
- viability, T/C [17]: 116%
- viability, T/C [18]: 105%
- viability, T/C (second compound 0.316 µM, first compound 3.16 µM): 81.1%
- viability, T/C (second compound 0.316 µM, first compound 10 µM): 38.3%
- viability, T/C [21]: 127%
- viability, T/C [22]: 104%
- viability, T/C [23]: 109%
- viability, T/C [24]: 109%
- viability, T/C (second compound 1 µM, first compound 3.16 µM): 68.2%
- viability, T/C (second compound 1 µM, first compound 10 µM): 37%
- viability, T/C [27]: 118%
- viability, T/C [28]: 99.9%
- viability, T/C [29]: 101%
- viability, T/C [30]: 97.2%
- viability, T/C (second compound 3.16 µM, first compound 3.16 µM): 75.8%
- viability, T/C (second compound 3.16 µM, first compound 10 µM): 30.9%
- viability, T/C [33]: 114%
- viability, T/C [34]: 97%
- viability, T/C [35]: 104%
- viability, T/C [36]: 93.9%
- viability, T/C (second compound 10 µM, first compound 3.16 µM): 74%
- viability, T/C (second compound 10 µM, first compound 10 µM): 31.2%

SMILES: CCc1c2c(nc3ccc(O)cc13)-c1cc3c(c(=O)n1C2)COC(=O)[C@]3(O)CC + COC1C(OC(N)=O)C(O)C(Oc2ccc3c(O)c(NC(=O)c4ccc(O)c(CC=C(C)C)c4)c(=O)oc3c2C)OC1(C)C
- IC50 (second compound 0.0316 µM): < 3.16 nM
- IC50 (second compound 0.1 µM): < 3.16 nM
- IC50 (second compound 0.316 µM): < 3.16 nM
- IC50 (second compound 1 µM): < 3.16 nM
- IC50 (second compound 3.16 µM): < 3.16 nM
- IC50 (second compound 10 µM): < 3.16 nM
- viability, T/C [1]: 37.3%
- viability, T/C [2]: 16.3%
- viability, T/C [3]: 8.76%
- viability, T/C [4]: 4.34%
- viability, T/C [5]: 4.57%
- viability, T/C [6]: 0.92%
- viability, T/C [7]: 38.9%
- viability, T/C [8]: 13.7%
- viability, T/C [9]: 10.5%
- viability, T/C [10]: 6.92%
- viability, T/C [11]: 2.75%
- viability, T/C [12]: 1.04%
- viability, T/C [13]: 37.1%
- viability, T/C [14]: 15.8%
- viability, T/C [15]: 14.7%
- viability, T/C [16]: 4.68%
- viability, T/C [17]: 2.98%
- viability, T/C [18]: 1.19%
- viability, T/C [19]: 34.1%
- viability, T/C [20]: 14.2%
- viability, T/C [21]: 12.5%
- viability, T/C [22]: 6.32%
- viability, T/C [23]: 3.96%
- viability, T/C [24]: 3.08%
- viability, T/C [25]: 31.2%
- viability, T/C [26]: 13.9%
- viability, T/C [27]: 9.37%
- viability, T/C [28]: 4.13%
- viability, T/C [29]: 2.03%
- viability, T/C [30]: 2.74%
- viability, T/C [31]: 29.1%
- viability, T/C [32]: 15.1%
- viability, T/C [33]: 11.4%
- viability, T/C [34]: 6.62%
- viability, T/C [35]: 3.37%
- viability, T/C [36]: 1.53%
